Data published in patent publication US12329930B2, “Subarachnoid fluid management method and system” (EnClear Therapies, Inc., priority 2020, dated 2025).

Experiment: Administration of methotrexate to a sheep via the CSF circuit; drug concentration measured with LC/MS in CSF, spinal cord and brain regions
Assay type: in vivo
Experimental: The inventors administered methotrexate to sheep using illustrative embodiments. An outline of the study is depicted by FIGS. 16A-16C. A sheep used for this experiment received the CSF circuit 10 of illustrative embodiments. Circulation was started at the same time that methotrexate was infused. Methotrexate was infused at a gradual rate of 2 mLs over 2 minutes and then recirculation from lumbar to ventricle was started at a rate of 0.2 mLs/min. Circulation continued after drug infusion was stopped for […]. At zero to three hours, the circulation rate was at 0.1 mL/min and from four to six hours, circulation was at 0.3 mL/min. The dose of methotrexate infused was 12 mg. Drug concentration was measured with LC/MS (liquid chromatography with the mass analysis capabilities of mass spectrometry) in the CSF, spinal cord, and multiple brain regions.
CSF levels of methotrexate were analyzed over time.
The x-axis of this graph is […].

- CSF levels of methotrexate, lumbar region (12 mg infused 2 mLs over 2 minutes, lumbar region where drug was infused, lumbar to ventricle circulation, LC/MS): very high
- methotrexate levels in brain and spinal cord tissue (12 mg, samples from twelve brain regions homogenized, all areas of the brain and spinal cord): good levels
- CSF levels of methotrexate, ventricular samples, initially (12 mg, ventricular CSF samples, initial time points, LC/MS): very low
SMILES: CN(Cc1cnc2nc(N)nc(N)c2n1)c1ccc(C(=O)N[C@@H](CCC(=O)O)C(=O)O)cc1 [methotrexate]
- CSF levels of methotrexate over time, lumbar region (12 mg, lumbar CSF samples, time course, LC/MS): a decline over time was measured except for an increase at 5 hours and then a subsequent decline
- CSF levels of methotrexate over time, ventricular samples (12 mg, ventricular CSF samples, later time points, LC/MS): increased at 4 and 5 hours, before declining to a similar level as the lumbar samples
